Assay results taken from US7989459B2, “Purinones and 1H-imidazopyridinones as PKC-theta inhibitors” (Pharmacopeia, LLC, priority 2006, dated 2011).

Tests used:
[1] = target: PKC delta (Homo sapiens, UniProt Q05655); experiment: Ki Pan Vera (PV) PKC delta; type: biochemical
[2] = system: anti-CD3 induced interleukin-2 (IL-2) production; experiment: anti-CD3 induced IL-2 production in mice; type: in vivo; settings: subcutaneous dose 30 mg/kg
Experimental: The compounds of the invention were also tested in vivo.

[3] = target: PKCθ (Homo sapiens, UniProt Q04759); experiment: Ki Pan Vera (PV) PKCθ; type: biochemical
Experimental: (§1) For Ki Pan Vera (PV) of PKCθ, entries identified with “A” had values below 100 nM; entries identified with “B” had values below 1 μM.

[4] = target: PKC alpha (Homo sapiens, UniProt P17252); experiment: Ki Pan Vera (PV) PKC alpha; type: biochemical
Experimental: [Worded in the source for another target; this target is reported under the same test.] as §1

[5] = target: T1, SGK1 (Homo sapiens, UniProt O00141); experiment: IC50 for kinase SGK (selectivity); type: biochemical
T1 sequence (O00141 1-431): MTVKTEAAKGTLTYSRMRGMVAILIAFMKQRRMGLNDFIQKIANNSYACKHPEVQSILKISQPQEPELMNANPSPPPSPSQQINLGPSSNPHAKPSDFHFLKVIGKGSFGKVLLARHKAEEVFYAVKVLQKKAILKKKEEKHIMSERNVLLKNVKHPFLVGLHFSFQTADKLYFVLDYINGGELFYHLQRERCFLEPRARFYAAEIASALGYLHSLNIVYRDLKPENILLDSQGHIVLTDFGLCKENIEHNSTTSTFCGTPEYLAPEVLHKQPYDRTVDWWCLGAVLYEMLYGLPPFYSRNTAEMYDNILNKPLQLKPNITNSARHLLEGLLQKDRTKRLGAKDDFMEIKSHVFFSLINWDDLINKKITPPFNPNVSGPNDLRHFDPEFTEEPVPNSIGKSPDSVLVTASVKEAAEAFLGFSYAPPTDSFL
Experimental: Entries identified with “1” had values above 15 nM; entries identified with “2” had values above 100 nM; entries identified with “3” had values above 1 μM; entries identified with “4” had values above 10 μM. In Table 2, “nd” stands for “not determined.”

Sequence of PKC delta (Q05655 whole entry): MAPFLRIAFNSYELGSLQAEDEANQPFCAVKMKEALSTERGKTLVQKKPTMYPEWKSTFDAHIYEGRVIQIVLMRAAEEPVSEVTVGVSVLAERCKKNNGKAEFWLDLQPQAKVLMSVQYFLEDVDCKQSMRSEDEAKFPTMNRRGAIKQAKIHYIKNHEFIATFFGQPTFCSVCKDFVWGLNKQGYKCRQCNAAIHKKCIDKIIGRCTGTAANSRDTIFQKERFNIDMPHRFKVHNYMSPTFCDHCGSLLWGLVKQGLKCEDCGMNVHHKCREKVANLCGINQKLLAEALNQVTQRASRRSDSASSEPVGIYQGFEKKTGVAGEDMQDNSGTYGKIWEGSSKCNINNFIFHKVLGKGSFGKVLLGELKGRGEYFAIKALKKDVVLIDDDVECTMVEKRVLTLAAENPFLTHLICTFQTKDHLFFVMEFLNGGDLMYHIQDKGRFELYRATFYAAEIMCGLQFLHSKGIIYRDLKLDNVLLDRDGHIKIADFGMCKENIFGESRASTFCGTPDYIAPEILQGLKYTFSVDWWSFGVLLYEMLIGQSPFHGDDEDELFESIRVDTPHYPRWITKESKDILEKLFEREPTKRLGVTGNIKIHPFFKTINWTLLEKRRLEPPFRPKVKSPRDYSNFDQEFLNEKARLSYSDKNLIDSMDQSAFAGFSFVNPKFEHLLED
Sequence of PKCθ (Q04759 whole entry): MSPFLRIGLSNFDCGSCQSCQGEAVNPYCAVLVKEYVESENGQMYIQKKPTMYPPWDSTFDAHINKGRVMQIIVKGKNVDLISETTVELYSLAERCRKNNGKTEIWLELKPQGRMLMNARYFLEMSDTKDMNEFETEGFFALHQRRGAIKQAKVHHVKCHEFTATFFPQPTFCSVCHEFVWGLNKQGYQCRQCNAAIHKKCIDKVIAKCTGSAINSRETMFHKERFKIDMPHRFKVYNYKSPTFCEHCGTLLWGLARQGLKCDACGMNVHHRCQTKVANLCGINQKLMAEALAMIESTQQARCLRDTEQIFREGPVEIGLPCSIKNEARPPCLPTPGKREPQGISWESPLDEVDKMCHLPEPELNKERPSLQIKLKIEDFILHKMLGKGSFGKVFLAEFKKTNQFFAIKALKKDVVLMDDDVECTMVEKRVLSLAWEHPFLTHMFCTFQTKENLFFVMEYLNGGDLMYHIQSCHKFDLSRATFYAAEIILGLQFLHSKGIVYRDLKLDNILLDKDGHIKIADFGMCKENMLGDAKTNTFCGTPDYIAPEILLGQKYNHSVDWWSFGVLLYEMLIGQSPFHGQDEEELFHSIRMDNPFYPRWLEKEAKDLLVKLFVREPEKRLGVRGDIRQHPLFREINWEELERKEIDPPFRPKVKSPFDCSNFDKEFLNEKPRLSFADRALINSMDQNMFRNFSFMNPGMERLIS

Structure (SMILES) | Ki [1] | % inhibition of IL-2 production [2] | Ki [3] | Ki [4] | IC50-SGK1 (nM) [5]
NCCCNc1ncc2[nH]c(=O)n(Cc3c(Cl)cccc3Cl)c2n1 [Compound 120, 9-(2,6-dichlorobenzyl)-2-(3-aminopropylamino)-7H-purin-8(9H)-one] | > 100 nM | 40% | < 100 nM | > 10000 nM | Inactive
O=c1[nH]c2cnc(NC[C@@H]3CCNC3)nc2n1Cc1cccc(Cl)c1Cl [Compound 107] | > 15 nM | 45% | < 100 nM | > 1000 nM | –
